Assay [1] concerns the target T1, IGF-1R (Homo sapiens (Human), UniProt P08069). The experiment in a line: Example B-2: IGF-1R Assay (PathHunter cell lines, EC80 agonist challenge). The format is cell-based. The conditions noted are these: read-out: IC50 (Biological Activity against IGF-1R). The procedure: PathHunter cell lines were expanded from freezer stocks according to standard procedures. Cells were seeded in a total volume of 20 μL into white walled, 384-well microplates and incubated for the appropriate time prior to testing.
Cells are pre-incubated with compound followed by EC80 agonist challenge as follows: • 1. Intermediate dilution of sample stocks was performed to generate 5× sample in assay buffer. • 2. 5 μL of 5× sample was added to cells and incubated at 37° C. for 60 minutes. Vehicle concentration was 1%. • 3. 5 μL of 6×EC80 agonist in assay buffer was added to the cells and incubated at room temperature for 3 hours.
Assay signal was generated through a single addition of 12.5 or 15 μL (50% v/v) of PathHunter Detection reagent cocktail for agonist and antagonist assays respectively, followed by a one hour incubation at room temperature. Microplates were read following signal generation with a PerkinElmer Envision™ instrument for chemilumine-scent signal detection.
Compound activity was analyzed using CBIS data analysis suite (ChemInnovation, CA). Percentage inhibition was calculated using the following formula: % Inhibition=100%×(1−(mean RLU of test sample−mean RLU of vehicle control)/(mean RLU of EC80 control−mean RLU of vehicle control)). The activity for representative examples of the invention is shown in the following table, wherein A: IC50≤500 nM; B: 500 nM<IC50≤2 μM; C: […]≤10 μM; D: IC50>[…].
Target sequence in this assay (P08069 31-1367, species assumed): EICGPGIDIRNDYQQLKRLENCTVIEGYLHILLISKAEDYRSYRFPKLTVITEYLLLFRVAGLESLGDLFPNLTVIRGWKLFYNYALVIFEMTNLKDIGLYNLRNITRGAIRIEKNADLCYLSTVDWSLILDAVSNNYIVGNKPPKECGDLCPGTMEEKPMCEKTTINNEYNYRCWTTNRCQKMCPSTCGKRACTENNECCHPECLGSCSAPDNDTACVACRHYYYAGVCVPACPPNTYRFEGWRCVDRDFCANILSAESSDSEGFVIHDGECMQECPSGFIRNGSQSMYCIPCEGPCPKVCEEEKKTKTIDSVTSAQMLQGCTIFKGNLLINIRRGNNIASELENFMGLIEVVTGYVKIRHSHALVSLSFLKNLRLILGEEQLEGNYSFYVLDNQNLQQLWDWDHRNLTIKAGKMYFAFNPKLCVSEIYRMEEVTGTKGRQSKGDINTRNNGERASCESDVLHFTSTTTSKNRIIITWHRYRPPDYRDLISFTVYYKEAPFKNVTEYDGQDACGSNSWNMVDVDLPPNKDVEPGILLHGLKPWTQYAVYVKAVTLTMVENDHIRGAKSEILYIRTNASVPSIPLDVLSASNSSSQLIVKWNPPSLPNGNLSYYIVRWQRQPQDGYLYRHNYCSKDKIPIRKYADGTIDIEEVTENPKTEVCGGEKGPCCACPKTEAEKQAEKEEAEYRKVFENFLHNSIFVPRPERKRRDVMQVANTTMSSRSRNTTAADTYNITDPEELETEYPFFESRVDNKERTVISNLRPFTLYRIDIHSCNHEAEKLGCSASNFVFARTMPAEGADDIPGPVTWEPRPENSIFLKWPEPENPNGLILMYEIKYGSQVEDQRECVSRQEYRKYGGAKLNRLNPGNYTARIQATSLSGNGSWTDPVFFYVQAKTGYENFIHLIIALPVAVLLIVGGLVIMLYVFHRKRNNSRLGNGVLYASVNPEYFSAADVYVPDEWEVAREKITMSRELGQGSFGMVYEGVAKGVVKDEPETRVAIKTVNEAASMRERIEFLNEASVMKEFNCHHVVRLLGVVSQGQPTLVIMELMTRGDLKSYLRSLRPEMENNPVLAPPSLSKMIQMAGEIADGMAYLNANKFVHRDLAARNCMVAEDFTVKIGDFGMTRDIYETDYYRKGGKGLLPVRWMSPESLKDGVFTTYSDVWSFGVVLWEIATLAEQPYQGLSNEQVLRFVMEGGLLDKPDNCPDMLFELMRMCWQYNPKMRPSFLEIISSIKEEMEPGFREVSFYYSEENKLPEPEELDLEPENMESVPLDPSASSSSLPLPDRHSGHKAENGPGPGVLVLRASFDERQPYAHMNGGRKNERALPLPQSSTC

Assay [2] concerns the target T1, IGF-1R. The experiment in a line: Example B-1: IGF-1R Assay (PC3 cells, IGF1 stimulation, AlphaLISA). The assay is classed as cell-based. Particulars: 200 ng/mL IGF1 stimulation, read-out: Biological Activity against IGF-1R IC50. Summed up: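 Readout is AlphaLISA signal from lysed PC3 cells, expressed as % inhibition versus vehicle and EC80 controls and banded by IC50. Before lysis, the cells were starved of serum for 2 h, exposed to 3× serially diluted compound for 2 h, and stimulated for 30 min with 200 ng/mL IGF1 (final).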
Target sequence in this assay (P08069 31-1367): as the sequence (P08069 31-1367, species assumed) above

In the case of `CN(C)CC(=O)N1CCOc2cc(Nc3nccc(Nc4cnc5cc(F)c(F)cc5c4)n3)ccc21` [Compound 152, 1-(7-((4-((6,7-difluoroquinolin-3-yl)amino)pyrimidin-2-yl)amino)-2,3-dihydro-4H-benzo[b][1.4]oxazin-4-yl)-2-(dimethylamino)ethan-1-one], the IC50 on IGF-1R [1] and at IGF-1R [2] was at most 500 nM in each case.

As for `COc1cc(Nc2nccc(Nc3cnc4cc(F)c(F)cc4c3)n2)c(Cl)cc1O[C@H]1C[C@@H](N(C)C)C1` [Compound 153, N2-(2-chloro-4-((1s,3s)-3-(dimethylamino)cyclobutoxy)-5-methoxyphenyl)-N4-(6,7-difluoroquinolin-3-yl)pyrimidine-2,4-diamine], the IC50 on IGF-1R [1] and at IGF-1R [2] was at most 500 nM in each case.

With `COc1cc(Nc2nccc(Nc3cc4cccc(F)c4[nH]c3=O)n2)cnc1N1CCC(C)(O)CC1` [Compound 159, 8-fluoro-3-((2-((6-(4-hydroxy-4-methylpiperidin-1-yl)-5-methoxypyridin-3-yl)amino)pyrimidin-4-yl)amino)quinolin-2(1H)-one], the IC50 is 500 to 2000 nM on IGF-1R [1] and at most 500 nM on IGF-1R [2].

Turning to `COc1cc(Nc2nccc(Nc3cnc4ccc(C(F)F)cc4c3)n2)ccc1O[C@H]1C[C@H](N(C)C)C1` [Compound 162, 4-[6-(difluoromethyl)-3-quinolylamino]-2-{3-methoxy-4-[(1r,3r)-3-(dimethylamino)cyclobutoxy]phenylamino}pyrimidine], the figures for the IC50 at IGF-1R [1] and on IGF-1R [2] were 500 to 2000 nM and at most 500 nM, respectively.

Consider `CN(C)CC1COc2cc(Nc3nccc(Nc4cnc5cc(F)c(F)cc5c4)n3)ccc2O1` (stereo not drawn) [Compound 169, 4-(6,7-difluoro-3-quinolylamino)-2-{2-[(dimethylamino)methyl]-2,3-dihydro-1,4-benzodioxin-6-ylamino}pyrimidine], for which the IC50 at IGF-1R [1] and on IGF-1R [2] was at most 500 nM each time.

Consider `Clc1ccc2ncc(Nc3ccnc(Nc4ccc5c(c4)OCCO5)n3)cc2c1` [Compound 170, 4-(6-chloro-3-quinolylamino)-2-(2,3-dihydro-1,4-benzodioxin-6-ylamino)pyrimidine], for which the IC50 on IGF-1R [1] and at IGF-1R [2] was 500 to 2000 nM in each case.

For the molecule `CN(C)CC1COc2cc(Nc3nccc(Nc4cc5ccccc5nc4C(N)=O)n3)ccc2O1` (stereo not drawn) [Compound 171, 3-((2-((2-((dimethylamino)methyl)-2,3-dihydrobenzo[b][1,4]dioxin-6-yl)amino)pyrimidin-4-yl)amino)quinoline-2-carboxamide], the IC50 on IGF-1R [1] and at IGF-1R [2] was at most 500 nM each time.

On to `CN(C)CC1COc2cc(Nc3nccc(Nc4cnc5ccc(Cl)cc5c4)n3)cnc2O1` (stereo not drawn) [Compound 177, 4-(6-chloro-3-quinolylamino)-2-{3-[(dimethylamino)methyl]-2,3-dihydro-1,4-dioxa-5-aza-7-naphthylamino}pyrimidine], for which the IC50 on IGF-1R [1] and on IGF-1R [2] was at most 500 nM each time.

Regarding `CN(C)CC1COc2cc(Nc3nccc(Nc4cnc5ccccc5c4)n3)cnc2O1` (stereo not drawn) [Compound 178, 2-{3-[(dimethylamino)methyl]-2,3-dihydro-1,4-dioxa-5-aza-7-naphthylamino}-4-(3-quinolylamino)pyrimidine], the IC50 at IGF-1R [1] and at IGF-1R [2] was at most 500 nM each time.

For `COc1cc(Nc2nccc(Nc3cnc4ccc(Cl)cc4c3)n2)ccc1O[C@H]1C[C@H](N(C)C)C1` [Compound 195, 4-(6-chloro-3-quinolylamino)-2-{3-methoxy-4-[(1r,3r)-3-(dimethylamino)cyclobutoxy]phenylamino}pyrimidine], the IC50 on IGF-1R [1] and on IGF-1R [2] was at most 500 nM throughout.

As for `COc1cc(Nc2nccc(Nc3cnc4ccc(Cl)cc4c3)n2)ccc1OCCCN1CCCCC1` [Compound 196, 4-(6-chloro-3-quinolylamino)-2-[3-methoxy-4-(3-piperidinopropoxy)phenylamino]pyrimidine], the half-maximal inhibitory concentration (IC50) at IGF-1R [1] and at IGF-1R [2] was at most 500 nM each time.

`COc1cc(Nc2nccc(Nc3cnc4c(c3)OCCO4)n2)ccc1O[C@H]1C[C@@H](N(C)C)C1` [Compound 200, 4-(2,3-dihydro-1,4-dioxa-5-aza-7-naphthylamino)-2-{3-methoxy-4-[(1s,3s)-3-(dimethylamino)cyclobutoxy]phenylamino}pyrimidine]: the IC50 at IGF-1R [1] and at IGF-1R [2] was at most 500 nM each time.

As for `COc1cc(Nc2nccc(Nc3cnc4ccccc4c3)n2)ccc1O[C@H]1C[C@@H](N(C)C)C1` [Compound 204, 2-{3-methoxy-4-[(1s,3s)-3-(dimethylamino)cyclobutoxy]phenylamino}-4-(3-quinolylamino)pyrimidine], the IC50 on IGF-1R [1] and on IGF-1R [2] was at most 500 nM each time.

As for `COc1cc(C2CCN(CC#N)CC2)ncc1Nc1nccc(Nc2cc3cccc(F)c3[nH]c2=O)n1` [Compound 211, (4-{5-[4-(8-fluoro-2-oxo-1,2-dihydro-3-quinolylamino)-2-pyrimidinylamino]-4-methoxy-2-pyridyl}-1-piperidyl)acetonitrile], the IC50 on IGF-1R [1] and at IGF-1R [2] was at most 500 nM throughout.

Take `COc1nc(C2CCN(CC#N)CC2)ccc1Nc1nccc(Nc2cc3cccc(F)c3[nH]c2=O)n1` [Compound 212, (4-{5-[4-(8-fluoro-2-oxo-1,2-dihydro-3-quinolylamino)-2-pyrimidinylamino]-6-methoxy-2-pyridyl}-1-piperidyl)acetonitrile]: the half-inhibitory concentration (IC50) on IGF-1R [1] was 500 to 2000 nM; on IGF-1R [2], at most 500 nM.

Take `COc1cc(C2CCN(CC#N)CC2)ccc1Nc1nccc(Nc2cc3cccc(F)c3[nH]c2=O)n1` [Compound 213, (4-{4-[4-(8-fluoro-2-oxo-1,2-dihydro-3-quinolylamino)-2-pyrimidinylamino]-3-methoxyphenyl}-1-piperidyl)acetonitrile]: the IC50 at IGF-1R [1] and on IGF-1R [2] was at most 500 nM throughout.

In the case of `COc1cc(C2CCOCC2)ncc1Nc1nccc(Nc2cc3cccc(F)c3[nH]c2=O)n1` [Compound 214, 8-fluoro-3-{2-[4-methoxy-6-(tetrahydro-2H-pyran-4-yl)-3-pyridylamino]-4-pyrimidinylamino}-1,2-dihydro-2-quinolinone], the IC50 on IGF-1R [1] and at IGF-1R [2] was at most 500 nM each time.

`COc1cc([C@H]2CC[C@](C)(O)CC2)ccc1Nc1nccc(Nc2cc3cccc(F)c3[nH]c2=O)n1` [Compound 215, 8-fluoro-3-(2-{2-methoxy-4-[(1s,4s)-4-hydroxy-4-methylcyclohexyl]phenylamino}-4-pyrimidinylamino)-1,2-dihydro-2-quinolinone]: the IC50 on IGF-1R [1] and at IGF-1R [2] was at most 500 nM in each case.

Turning to `COc1cc([C@H]2CC[C@@](C)(O)CC2)ccc1Nc1nccc(Nc2cc3cccc(F)c3[nH]c2=O)n1` [Compound 216, 8-fluoro-3-(2-{2-methoxy-4-[(1r,4r)-4-hydroxy-4-methylcyclohexyl]phenylamino}-4-pyrimidinylamino)-1,2-dihydro-2-quinolinone], the IC50 on IGF-1R [1] and at IGF-1R [2] was at most 500 nM throughout.

`COc1cc(N2CCN(CC(F)F)CC2)ncc1Nc1nccc(Nc2cc3cccc(F)c3[nH]c2=O)n1` [Compound 217, 3-(2-{6-[4-(2,2-difluoroethyl)-1-piperazinyl]-4-methoxy-3-pyridylamino}-4-pyrimidinylamino)-8-fluoro-1,2-dihydro-2-quinolinone]: the figures for the IC50 at IGF-1R [1] and on IGF-1R [2] were over 10000 nM and 500 to 2000 nM, respectively.

With `COc1cc(N2CCNC(C(F)F)C2)ncc1Nc1nccc(Nc2cc3cccc(F)c3[nH]c2=O)n1` (stereo not drawn) [Compound 218, 3-(2-{6-[3-(difluoromethyl)-1-piperazinyl]-4-methoxy-3-pyridylamino}-4-pyrimidinylamino)-8-fluoro-1,2-dihydro-2-quinolinone], the IC50 is 500 to 2000 nM on IGF-1R [1] and at most 500 nM at IGF-1R [2].

`COc1cc(Nc2nccc(Nc3cc4cccc(F)c4[nH]c3=O)n2)ccc1C1CCOCC1` [Compound 219, 8-fluoro-3-{2-[3-methoxy-4-(tetrahydro-2H-pyran-4-yl)phenylamino]-4-pyrimidinylamino}-1,2-dihydro-2-quinolinone]: the figures for the 50% inhibitory concentration (IC50) at IGF-1R [1] and at IGF-1R [2] were over 10000 nM and at most 500 nM, respectively.

`COc1cc(C2CCOCC2)ccc1Nc1nccc(Nc2cc3cccc(F)c3[nH]c2=O)n1` [Compound 220, 8-fluoro-3-{2-[2-methoxy-4-(tetrahydro-2H-pyran-4-yl)phenylamino]-4-pyrimidinylamino}-1,2-dihydro-2-quinolinone]: the IC50 on IGF-1R [1] was 500 to 2000 nM; at IGF-1R [2] it was at most 500 nM.

As for `COc1cc(N2CCNC3(CC3)C2)ncc1Nc1nccc(Nc2cc3cccc(F)c3[nH]c2=O)n1` [Compound 221, 3-(2-{6-(4,7-diaza-7-spiro[2.5]octyl)-4-methoxy-3-pyridylamino}-4-pyrimidinylamino)-8-fluoro-1,2-dihydro-2-quinolinone], the IC50 on IGF-1R [1] was 500 to 2000 nM; on IGF-1R [2], at most 500 nM.

For the origin of these results see patent US20250171431A1, “HETEROCYCLIC INHIBITORS OF IGF-1R FOR TREATMENT OF DISEASE” (HORIZON THERAPEUTICS IRELAND DAC, priority 2023, published 2025).
